# Reference: US20230285310A1, “COMPOSITIONS FOR THE DELIVERY OF PAYLOAD MOLECULES TO AIRWAY EPITHELIUM” (ModernaTX, Inc., priority 2020, published 2023)
# Counter-ions that a name gives are not always drawn.
# Key:
# Assay type in all cases: in vivo
# [1] = test system: respiratory epithelium; assay: LNP protein expression in rat after single dose of mRNA-LNP by intratracheal delivery (anti-V5 IHC); details: intratracheal instillation, ~1.2 mpk, NPI-Luc mRNA, core with β-sitosterol for SA23
# Description: Animals are anesthetized under isoflurane. The tongue is displaced and a small diameter cannula is inserted into the trachea (oropharyngeal route). The cannula tip is passed through the vocal chords, down the trachea so that the tip is very near, but not touching, the carina. Upon placement, 50 μL (mouse) or 200 μL (rat) of formulation is infused into the lungs. After 30 seconds upright, animals are released into a recovery cage and returned to their respective cages once recovered. Trachea, lungs and for the aerosol study nasal cavities, nasopharynx and larynx are collected for analysis. Lungs are inflated with 10% NBF fixative and trachea tied off to maintain inflation. Lungs are removed en bloc with attached trachea, bronchi and lobes. Whole lungs en bloc are fixed in 10% NBF at room temperature for at least 24 hours with a maximum of 48 hours and then removed from fixative and placed in PBS. Samples are immediately sent to be processed for paraffin 5-micron sections and H&E staining. IHC was performed on FFPE sections using the Leica Bond RX autostainer. […] Images were imaged at 20× magnification with the Panoramic 250 Flash III whole slide scanner. Image analysis was completed with Indica Labs HALO image analysis software. […] LNPs were prepared according to Example 2 using NPI-Luc as the mRNA construct. […] LNP protein expression in respiratory epithelium was evaluated according to sample collection and assay procedures A and B. The results are shown in Table 13b.
# [2] = test system: respiratory epithelium; assay: LNP protein expression in mouse after single dose of mRNA-LNP by intratracheal delivery (anti-V5 IHC); details: intratracheal instillation, ~0.7 mpk, NPI-Luc mRNA, core with β-sitosterol for SA23, SA31
# Description: Animals are anesthetized under isoflurane. The tongue is displaced and a small diameter cannula is inserted into the trachea (oropharyngeal route). The cannula tip is passed through the vocal chords, down the trachea so that the tip is very near, but not touching, the carina. Upon placement, 50 μL (mouse) or 200 μL (rat) of formulation is infused into the lungs. After 30 seconds upright, animals are released into a recovery cage and returned to their respective cages once recovered. Trachea, lungs and for the aerosol study nasal cavities, nasopharynx and larynx are collected for analysis. Lungs are inflated with 10% NBF fixative and trachea tied off to maintain inflation. Lungs are removed en bloc with attached trachea, bronchi and lobes. Whole lungs en bloc are fixed in 10% NBF at room temperature for at least 24 hours with a maximum of 48 hours and then removed from fixative and placed in PBS. Samples are immediately sent to be processed for paraffin 5-micron sections and H&E staining. IHC was performed on FFPE sections using the Leica Bond RX autostainer. […] Images were imaged at 20× magnification with the Panoramic 250 Flash III whole slide scanner. Image analysis was completed with Indica Labs HALO image analysis software. […] LNPs were prepared according to Example 2 using NPI-Luc as the mRNA construct. LNPs were delivered to mice by intratracheal instillation for a dose of ˜0.7 mpk. LNP protein expression in respiratory epithelium was evaluated according to sample collection and assay procedures A and B. The results are shown in Table 13a.
# [3] = test system: respiratory epithelium; assay: LNP protein expression in rat after single dose of mRNA-LNP by nose-only aerosol delivery (anti-V5 IHC); details: LNP per Example 8
# Text: Aerosol is generated using a vibrating mesh nebulizer and a defined inlet air flow rate. Aerosol is introduced into the rodent nose-only directed flow exposure chamber by first passing through a mixing chamber before flowing into the exposure tier. Animals are exposed to fresh aerosol at each nose port, which is then exhausted out of the system.
# Animals were trained to the nose-only dosing cones for three days prior to initiation of the study. On study day, animals were placed into the dosing cones that were then attached to the aerosol exposure chamber for designated exposure times of 60, 120 or 240 minutes per group for lung doses of 0.4, 0.6 and 1.1 mpk. Animals were monitored continuously throughout the entire exposure and subsequently for any observable adverse reactions. Aerosol concentration (mRNA) and aerodynamic particle size distribution were monitored at the dosing port before and after each dosing occasion to evaluate achieved dose levels and respirable aerosol particle size targets (1-4 μm for rat) respectively.
# Trachea, lungs and for the aerosol study nasal cavities, nasopharynx and larynx are collected for analysis. Lungs are inflated with 10% NBF fixative and trachea tied off to maintain inflation. Lungs are removed en bloc with attached trachea, bronchi and lobes. Whole lungs en bloc are fixed in 10% NBF at room temperature for at least 24 hours with a maximum of 48 hours and then removed from fixative and placed in PBS. Samples are immediately sent to be processed for paraffin 5-micron sections and H&E staining.
# For the aerosol study, nasal cavities, nasopharynx and larynx were also collected in addition to trachea and lungs.
# IHC was performed on FFPE sections using the Leica Bond RX autostainer. NPI-Luc protein expression was detected by anti-V5 tag antibody at a 1:100 dilution. V5 antibody was detected with the Bond Polymer Refine Detection kit followed by hematoxylin and bluing reagent counterstain. Images were imaged at 20× magnification with the Panoramic 250 Flash III whole slide scanner. Image analysis was completed with Indica Labs HALO image analysis software. Trachea, lung and/or nasal cavity images were analyzed to capture total tracheal, bronchial or nasal epithelial cells and data expressed when appropriate as p % V5 positive epithelial cells per total epithelial cells per animal.
# LNPs were prepared according to Example 8 using NPI-Luc as the mRNA construct. LNPs were delivered to rats by aerosol delivery using a nose-only aerosol dosing system. LNP protein expression in respiratory epithelium was evaluated according to sample collection and assay procedures A and B. The results are shown in Table 13c. Respiratory epithelium in the nasal cavity, trachea and bronchi were positive for protein expression after aerosol delivery of LNPs.
smiles,measurement,setting,value
"CC(C)CCC[C@@H](C)[C@H]1CC[C@H]2[C@@H]3CC=C4C[C@@H](OC(=O)N(CCCN)CCCCNCCCN)CC[C@]4(C)[C@H]3CC[C@]12C [SA3, (3S,8S,9S,10R,13R,14S,17R)-10,13-dimethyl-17-((R)-6-methylheptan-2-yl)-2,3,4,7,8,9,10,11,12,13,14,15,16,17-tetradecahydro-1H-cyclopenta[a]phenanthren-3-yl (3-aminopropyl)(4-((3-aminopropyl)amino)butyl)carbamate, trihydrochloride salt]",Average % V5 positive cells/total cells,[1]; Rat Bronchi (left and right lung),4.95%
same,Average % V5 positive cells/total cells,[1]; Rat Trachea,2.97%
same,Average % V5 positive cells/total cells,[2]; Mouse Bronchi (left lung),9.33%
same,Average % V5 positive cells/total cells,[2]; Mouse Trachea,40.7%
same,Average % V5 positive cells/total cells,"[3]; Rat Bronchi (left and right lung), lung dose 0.4 mpk",0.13%
same,Average % V5 positive cells/total cells,"[3]; Rat Bronchi (left and right lung), lung dose 0.6 mpk",0.13%
same,Average % V5 positive cells/total cells,"[3]; Rat Bronchi (left and right lung), lung dose 1.1 mpk",0.46%
same,Average % V5 positive cells/total cells,"[3]; Rat Nasal Cavity, lung dose 0.4 mpk",0.64%
same,Average % V5 positive cells/total cells,"[3]; Rat Nasal Cavity, lung dose 0.6 mpk",1.20%
same,Average % V5 positive cells/total cells,"[3]; Rat Nasal Cavity, lung dose 1.1 mpk",2.84%
same,Average % V5 positive cells/total cells,"[3]; Rat Trachea, lung dose 0.4 mpk",0.29%
same,Average % V5 positive cells/total cells,"[3]; Rat Trachea, lung dose 0.6 mpk",0.16%
same,Average % V5 positive cells/total cells,"[3]; Rat Trachea, lung dose 1.1 mpk",0.65%
